Measured values from article PMC4488857 (PLoS ONE, 2015).

Key:
[1] = biological target: T1, multidrug resistance-associated protein 2 (MRP2) (Homo sapiens, UniProt Q92887); assay: inhibition of ATP-dependent platinum uptake (oxaliplatin […]) in MRP2-expressing membrane vesicles, ICPMS; […] reduction at […]; assay type: cell-based; parameters: gene ABCC2; human MRP2 in inside-out Sf9 membrane vesicles
[2] = biological target: T1, multidrug resistance-associated protein 2 (MRP2); assay: inhibition of ATP-dependent platinum uptake (oxaliplatin […]) in MRP2-expressing membrane vesicles, ICPMS; assay type: biochemical; parameters: gene ABCC2; human MRP2 in inside-out Sf9 membrane vesicles
[3] = biological target: T1, multidrug resistance-associated protein 2 (MRP2); parameters: gene ABCC2

T1 sequence (Q92887 whole entry): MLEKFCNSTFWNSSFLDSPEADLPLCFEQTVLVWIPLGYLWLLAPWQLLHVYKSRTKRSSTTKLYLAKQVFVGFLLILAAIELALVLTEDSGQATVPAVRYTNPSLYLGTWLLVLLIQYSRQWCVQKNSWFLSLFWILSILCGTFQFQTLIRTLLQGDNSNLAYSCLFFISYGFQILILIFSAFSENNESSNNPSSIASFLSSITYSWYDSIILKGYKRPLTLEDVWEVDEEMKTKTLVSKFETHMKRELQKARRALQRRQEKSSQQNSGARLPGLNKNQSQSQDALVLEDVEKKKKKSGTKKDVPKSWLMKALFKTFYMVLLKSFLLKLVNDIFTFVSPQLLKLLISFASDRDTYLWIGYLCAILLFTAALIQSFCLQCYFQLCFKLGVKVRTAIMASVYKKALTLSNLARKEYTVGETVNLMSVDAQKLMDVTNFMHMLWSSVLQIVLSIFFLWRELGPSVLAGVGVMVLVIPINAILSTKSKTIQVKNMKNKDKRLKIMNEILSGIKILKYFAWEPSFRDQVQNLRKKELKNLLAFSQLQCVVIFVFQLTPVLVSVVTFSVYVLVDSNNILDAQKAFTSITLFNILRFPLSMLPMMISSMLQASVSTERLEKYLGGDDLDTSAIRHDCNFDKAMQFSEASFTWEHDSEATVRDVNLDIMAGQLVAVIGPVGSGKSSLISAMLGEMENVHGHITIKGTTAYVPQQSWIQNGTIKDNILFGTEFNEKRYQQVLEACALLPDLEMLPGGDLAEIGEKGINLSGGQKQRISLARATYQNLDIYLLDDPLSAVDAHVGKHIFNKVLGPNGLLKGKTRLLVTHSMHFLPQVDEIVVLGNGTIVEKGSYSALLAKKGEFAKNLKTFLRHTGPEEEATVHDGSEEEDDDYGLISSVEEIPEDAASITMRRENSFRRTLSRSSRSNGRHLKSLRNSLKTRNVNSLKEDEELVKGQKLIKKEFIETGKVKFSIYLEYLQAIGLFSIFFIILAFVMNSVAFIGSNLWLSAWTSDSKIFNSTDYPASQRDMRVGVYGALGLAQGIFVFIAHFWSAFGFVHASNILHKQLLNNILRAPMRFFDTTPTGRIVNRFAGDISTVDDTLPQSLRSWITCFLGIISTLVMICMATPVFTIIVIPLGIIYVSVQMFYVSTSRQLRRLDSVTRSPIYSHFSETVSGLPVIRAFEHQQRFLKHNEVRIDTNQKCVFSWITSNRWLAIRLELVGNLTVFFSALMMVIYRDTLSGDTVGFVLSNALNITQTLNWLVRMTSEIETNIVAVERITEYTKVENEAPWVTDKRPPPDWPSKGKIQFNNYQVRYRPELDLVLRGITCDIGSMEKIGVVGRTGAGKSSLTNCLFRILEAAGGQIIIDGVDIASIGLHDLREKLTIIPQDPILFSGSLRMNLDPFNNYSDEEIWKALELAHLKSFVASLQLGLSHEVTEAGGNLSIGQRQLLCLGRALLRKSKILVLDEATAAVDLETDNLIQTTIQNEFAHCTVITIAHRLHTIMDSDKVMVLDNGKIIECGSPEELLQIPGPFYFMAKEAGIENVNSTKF

CN(C)C(=O)CCSC(SCCC(=O)O)c1cccc(/C=C/c2ccc3ccc(Cl)cc3n2)c1 (stereo not drawn) [MK571]
inhibition at 100 µM [1]: 96%

O=c1c(O)c(-c2cc(O)c(O)c(O)c2)oc2cc(O)cc(O)c12 [myricetin]
IC50 [2]: 10 to 100 µM

O=C1[O][Pt]2([NH][C@@H]3CCCC[C@H]3[NH]2)[O]C1=O [oxaliplatin]
Km [3]: 301 µM
